The text below walks through data of paper PMC12257540, “From Inhibitors to PET: SAR-Based Development of [^18F]SK60 for mIDH1 Imaging” (Journal of Medicinal Chemistry, 2025).

Values joined by “and” are separate entries in the source; they are usually repeats but may differ in a detail not shown here. Equal values may be shown once.

Series [1] in a line: Ex vivo biodistribution in naïve mice. The settings on record: i.v. Details: species or system CD-1 mice. On the procedure: [ ^ 18 F]-SK60 (151 ± 37.0 kBq) diluted in 200 μL of sterile isotonic saline was injected into the tail vein of restrained, awake mice. The animals were anesthetized with isoflurane at 5 (n = 2), 15 (n = 1–2), 30 (n = 3), and 60 (n = 3) min after injection; blood was collected from the retro-orbital plexus with a heparinized glass Pasteur pipet, and the anesthetized animal was sacrificed by cervical dislocation. Blood plasma was obtained by centrifugation of the whole blood (8000 rpm, 4 °C, 2 min). […] From the measured data, the uptake of the activity in the different tissues and organs at the different time points p.i. was calculated as a percentage of injected dose per gram of tissue (% ID/g) and standardized uptake values (SUV).

A short description of series [2]: PET-based biodistribution in naïve mice.
Protocol: For the time of the experiments, female CD-1 mice (n = 4; 8–10 weeks; 37–40 g) were kept in a dedicated climatic chamber with free access to water and food under a 12:12 h dark: light cycle at a constant temperature (24 °C). The animals were anesthetized (Anaesthesia Unit U-410, agntho’s, Lidingö, Sweden) with isoflurane (2.0%, 300 mL/min) delivered in a 20% oxygen/80% air mixture (Gas Blender 100 Series, MCQ instruments, Rome, Italy) and their body temperature maintained at 37 °C with a thermal bed system. […] Each PET image was corrected for random coincidences, dead time, scatter, and attenuation (AC) based on a whole body (WB) MR scan. The reconstruction parameters for the list mode data were 3D-ordered subset expectation maximization (OSEM), 4 iterations, 6 subsets, energy window: 400–600 keV, coincidence mode: 1–5, ring difference: 81. The PET data were collected by a continuous WB scan during the entire investigation. […] The brain region was identified using the mouse brain atlas template Ma-Benveniste-Mirrione-FDG. The activity data are expressed as the SUVmean of the overall ROI.
The nature of series [3]: In vivo metabolism in naïve mice (radio-RP-HPLC and radio-MLC of plasma and brain). Details: species or system CD-1 mice. To be noted: 30 min p.i., i.v.; for parent radioligand fraction in brain: mouse brain; for parent radioligand fraction in plasma: mouse plasma. On the procedure:
The metabolic stability of [ ^ 18 F]-SK60 was investigated ex vivo by radio-RP-HPLC and radio-micellar-HPLC (MLC) analyses of plasma and brain samples obtained from naïve female mice (n = 3) at 30 min post intravenous injection (p.i.). For the preparation of the RP-HPLC samples, two solvent systems MeCN/water (9/1; v/v) and MeOH/water (9/1; v/v) were tested for activity extraction from the plasma and brain samples. With both systems, recoveries of higher than 95% could be obtained. […] For the radio-MLC analyses, the brain and plasma samples were treated with sodium dodecyl sulfate and directly injected into the MLC system. Despite the slightly different elution profile compared to the RP-HPLC system caused by different separation mechanisms, the quantification of the peaks gave similar results (Figure B). Altogether, the results obtained with these two complementary systems indicate a high metabolic stability of [ ^ 18 F]-SK60 in mice without the formation of brain-penetrable radiometabolites.
[ ^ 18 F]-SK60 (24.3 ± 2.89 MBq) diluted in 200 μL of sterile isotonic saline was injected into the tail vein of restrained, awake mice. Thirty min after injection, animals were anesthetized with isoflurane, blood was collected from the retro-orbital plexus with a heparinized glass Pasteur pipet, and the anesthetized animal was sacrificed by cervical dislocation. Blood plasma was obtained by centrifugation of the whole blood (8000 rpm, 4 °C, 2 min). The brain was isolated, rapidly rinsed with 1 mL isotonic saline to remove superficial blood, and finally homogenized in 1 mL deionized water in an ice–water bath (Potter B. Braun, 1000 rpm, 10 strokes).
Protein precipitation and extraction were performed by using an ice-cold MeCN/water (9:1 v/v) or MeOH/water (9:1 v/v) mixture at a 4:1 (v/v) solvent-to-sample ratio for plasma or brain homogenates. Samples were vortexed for 3 min, equilibrated on ice for 5 min, and centrifuged at 10,000 rpm for 5 min. […] Combined supernatants were concentrated under nitrogen at 75 °C to ∼100 μL and analyzed via radio-HPLC using a Reprosil-Pur 120 C18-AQ column with a gradient MeCN/20 mM NH4OAcaq (pH 6.8) elution (gradient: eluent A 10% MeCN/20 mM NH4OAcaq.; eluent B 90% MeCN/20 mM NH4OAcaq.; 0–5 min 100% A, 5–17 min up to 100% B, 17–26 min 100% B, 26–27 min up to 100% A, 27–30 min 100% A). […]
For the preparation of the MLC samples, mouse plasma (20–50 μL, 2–3 kBq) was dissolved in 200 μL of 200 mM aqueous sodium dodecyl sulfate (SDS) and injected into the MLC system. […] The MLC system consisted of a JASCO PU-980 pump, an AS-2055Plus autoinjector with a 2 mL sample loop, and a UV-1575 detector coupled with a γ radioactivity HPLC detector (Gabi Star, raytest Isotopenmessgeräte GmbH; Straubenhardt; Germany). […]

As for `Cc1cccc(NC(=O)c2nn(Cc3ccc([18F])cc3)c3c2CN(C(=O)c2ccc[nH]2)CC3(C)C)c1` [[18F]SK60], the “activity in kidneys and bladder” value in series [1] (kidneys and bladder, 60 min p.i.) is < 1 SUVmean. Besides, the accumulation in liver in series [1] (liver, 5 min p.i.) is on record as ~7 SUVmean; in series [2] (PET, liver, 30 min, n = 2), 1.6 SUVmean. Moreover, in series [1] (small intestine, 60 min p.i.), the “accumulation in small intestine” value is ~13 SUVmean. Also, the accumulation in gallbladder in series [2] (PET, gallbladder, 30 min, n = 2) was 60 SUVmean. The brain uptake in series [2] (brain, 15 min p.i.) is recorded as ~0.3 SUVmean. In addition, the “parent radioligand fraction in brain” value in series [3] (MLC) and in series [3] (RP-HPLC) was 100% throughout. For the same compound, the “parent radioligand fraction in plasma” value was 79% in series [3] (MLC); 80 ± 2% and 80% in series [3] (RP-HPLC).
